Laboratory results as given in US4540700A, “Treatment of diabetic complications with certain spiro-imidazolidine-diones” (Alcon Laboratories, Inc., priority 1984, dated 1985).

Legend:
cataracts in rats = test: prevention or retardation of cataracts in rats fed 30% galactose diet (compound in chow); type: in vivo, rat; details: for inhibition of cataract development: 4 and 8 Mg/Kg/day; for condition of rat eyes: 4 and 8 Mg/Kg/day in 30% galactose chow, 32 days
Excerpt: (§1) The compounds were formulated in ground Purina Rodent Laboratory Chow, Number 5001, containing 30% galactose.
Eighty-four rats were divided into the following seven groups (six treated groups having different compound intake levels and an untreated galactose control) having different compound intake levels as shown in Table IV.
(§2) The galactose control group (twelve rats, twenty-four eyes) were fed ground Purina Rodent Laboratory Chow, No. 5001 containing 30% by weight galactose. The six test compound groups (twelve rats, twenty-four eyes per group) were fed the same 30% galactose chow except that the chow was formulated to deliver […] of the indicated test compound (see Table IV).
It is known that young male rats fed a 30% galactose diet (As previously described) will develop lenticular changes within several days which predicatively progress in time irreversibly to cataracts. Aldose reductase inhibitor compounds which are in vivo active will delay or prevent galactose induced cataractogenesis. In this in vivo experiment, the test aldose reductase inhibitor compounds were formulated in the 30% galactose feed to evaluate their in vivo anticataract activity.

[1] = system: galactitol levels in the lenses; test: galactitol levels in lenses of galactose-fed rats at Day 32; type: in vivo, rat; parameters: average galactitol levels in lenses: unit not given here; details: for average galactitol levels in lenses: Day 32
Excerpt: as §1, §2

## O=C1NC(=O)C2(N1)c1ccccc1-c1ccc(F)cc12 (racemic) [Compound L, dl-Spiro(2-fluorofluoren-9,4'-imidazolidine)-2',5'-dione]
Cataracts in rats
  inhibition of cataract development: inhibit cataract development
  condition of rat eyes: asymptomatic
[1]; 4 Mg/Kg/day
  average galactitol levels in lenses: 6.274
[1]; 8 Mg/Kg/day
  average galactitol levels in lenses: 5.074

## O=C1NC(=O)C2(CCOc3ccc(F)cc32)N1 (racemic) [Sarges Racemic, dl-spiro-(6-fluorochroman-4,4'-imidazolidine)-2',5'-dione, reference compound]
Cataracts in rats; 4 Mg/Kg/day
  Times to Cataract, Mean: 15.68 days
  average time to snowflake-like opacities: 15.7 days
Cataracts in rats
  condition of rat eyes: developed snowflake-like opacities
Cataracts in rats; 4 vs 8 Mg/Kg/day, average
  time to cataract, days less than at 8 Mg/Kg/day: 4 days
Cataracts in rats; 8 Mg/Kg/day
  Times to Cataract, Mean: 19.68 days
  average time to snowflake-like opacities: 19.7 days
[1]; 4 Mg/Kg/day
  average galactitol levels in lenses: 9.238
[1]; 8 Mg/Kg/day
  average galactitol levels in lenses: 9.107

## O=C1NC(=O)C2(N1)c1cc(F)ccc1-c1ccc(F)cc12 [M, Spiro-[2,7-difluorofluoren-9,4'-imidazolidine]-2',5'-dione]
Cataracts in rats
  inhibition of cataract development: inhibit cataract development
  condition of rat eyes: asymptomatic
[1]; 4 Mg/Kg/day
  average galactitol levels in lenses: 2.560
[1]; 4 and 8 Mg/Kg/day
  potency relative to the 2-fluoro compound: more potent
[1]; 8 Mg/Kg/day
  average galactitol levels in lenses: 1.399
